Measurements reported in a melting point compilation (Tetko et al.; mined from patent text by program, amines drawn as free bases though some values may be those of a salt).

Structure (SMILES) | melting point [°C]
CCOC(=O)N1Cc2sc3ncn(CCCl)c(=O)c3c2C1 | 169 to 171
O=C(O)c1cc(NCc2c(F)c(F)c(C(F)(F)F)c(F)c2F)ccc1Cl | 58
COc1cc(O)c2c(=O)c(OC)c(-c3ccc(OC4OC(CO)C(O)C(O)C4O)c(OC)c3)oc2c1 (stereo not given) | 203 to 204
O=CNC=Cc1cc(O)ccc1O | 149 to 153
COc1ccc(F)cc1C(C)(C)CC(O)(C(=O)O)C(F)(F)F (stereo not given) | 102 to 104
Nc1ccc(C(=O)Nc2ccc(-n3nc(C(F)(F)F)cc3C(F)(F)F)cc2)cc1 | > 240
COc1cc2c(cc1OC)C(C)(CCC(=O)O)OCC2=O (stereo not given) | 172 to 173
CC(=O)n1cc(O)c2cc(Cl)ccc21 | 186 to 188
CN(C)NC(=O)c1ccc(-c2ccc(Cl)cc2)o1 | 150 to 152
C=CCSc1ccc2[nH]c(NC(=O)OC)nc2c1 | 197 to 198
COC1=C(C)C(=O)C2=C(C1=O)C(COC(N)=O)C1(OC)C3NC3CN21 (stereo not given) | 161
C=CCc1cc(O)c(CC=C)c(C=O)c1O | 102
O=C(Cl)C1CCCCC1 | 41 to 42
CCOC(=O)c1ccc(C=C(C)C=O)cn1 | 72 to 73
Nc1c(Cl)c(Oc2ccccc2)nc(C(=O)O)c1Cl | 158 to 160
CC(=O)c1ccc(N2CCN(Cc3n[nH]c4ccccc34)CC2)cc1 | 198 to 200
CN(C)c1ccc2c(c1)SSSSS2 | 122
CNc1cc(F)ccc1C(=O)CS(C)=O (stereo not given) | 129 to 134
COC(=O)C1(C)COC(c2nc(-c3ccc(F)cc3)c(-c3ccnc(S(C)(=O)=O)n3)[nH]2)OC1 (stereo not given) | 186 to 187
CCOc1n[nH]c(=O)n1C1CC1 | 144 to 145
Cc1noc(NS(=O)(=O)c2ccsc2C(=O)Nc2ccccc2)c1Br | 168 to 170
COc1cc(C)cc(OC)c1C1=NC(NC(=O)c2cc3ccccc3[nH]2)C(=O)N(C)c2ccccc21 (single isomer, unassigned; (-)) | 135
CCOC(=O)c1cn(N(C)C)c2ccccc2c1=O | 119 to 120
CCC(C(C)=CC(CNC(=O)c1nc[nH]c1C)=NO)[N+](=O)[O-] (stereo not given) | 133 to 136
O=C1NC(=O)C(c2ccc3ccccc3c2)O1 (stereo not given) | 187 to 188

Structure (SMILES) | melting point [°C]
CN(c1ccccc1[N+](=O)[O-])S(=O)(=O)c1cccnc1Cl | 180
CCCOC(=O)Nc1cn2nc(OCc3cc(C)ccc3C)ccc2n1 | 196 to 197
CC1(CC2CCCC2)Cc2cc(CC(=O)O)c(Cl)c(Cl)c2C1=O (stereo not given) | 146 to 148
O=C(NCc1ccc(F)c(F)c1)c1ccnc(N2CCN(Cc3cccnc3)C2=O)c1 | 178 to 180
FC(F)(F)c1cc(-c2ccc(Cl)cc2)nc(-n2cnc(I)c2)n1 | 258
Cc1c(C(N)=O)oc2nn(Cc3ccccc3)c(C)c12 | 228 to 230
COc1ccc(-c2sc3c(c2CN(C)Cc2ccccc2)c(=O)c(C=O)cn3Cc2ccccc2OC)cc1 | 181 to 185
COc1ccccc1NC(=O)CN1C(=O)c2ccccc2C1=O | 211
c1ccc(-c2cc3nnc(-c4ccccc4)n3nc2OCc2cscn2)cc1 | 236
CCCCCCCCCCCCCCOc1ccc(CC(=O)Cl)cc1OC | 56 to 57
CCCCCCc1cc(C(=O)OCC)c(-c2ccccc2)c(-c2ccccc2)c1C(=O)OCC | 119 to 121
COc1cc(Nc2cccc(-c3ccccc3)c2)ccc1-c1cnco1 | 171 to 173
N#Cc1cc(C(F)(F)F)ccc1Oc1ccc([N+](=O)[O-])c(C(=O)O)c1 | 190 to 192
O=[N+]([O-])c1cccc(CO)c1Cl | 69 to 70
CCCCCCC(=O)c1ccc(O)cc1 | 93
COc1nc(C)cnc1N(C(=O)OCC(C)C)S(=O)(=O)c1cccnc1-c1ccc(CC(C)C)cc1 | 133 to 137
N#CC(NC(=O)C(F)(F)C(F)(F)C(F)(F)F)c1ccc(Cl)cc1 (stereo not given) | 93 to 95
N#Cc1cnc2cc(F)c(OCCN3CCOCC3)cc2c1Cl | 163 to 164
ClCCCOc1ccc(-c2nc3ccccc3s2)cc1 | 141 to 143
O=C(O)c1ccc(OCCCCCCc2cccc(O)c2O)cc1O | 179 to 180
CN(C)c1ccc(-c2nc(C#N)c(C#N)nc2C#N)cc1 | 198 to 200
COc1ccc(C2=NNC(=O)CC2)cc1CO | 207 to 208
Cc1c(O)cc2c(c1C)CCC2(C)C | 117 to 118
CCOC(=O)c1nn(Cc2ccc(Cl)c(Cl)c2)c(-c2ccc(Cl)cc2)c1C | 118
CCOC(=O)c1c(C(C)C)nc(C(C)C)c(C(=O)OCC)c1-c1ccc(OCc2ccccc2)cc1 | 87
